Measurements published in US20030096022A1, “Compositions and methods for the treatment and prevention of cardiovascular diseases and disorders, and for identifying agents therapeutic therefor” (Medlyte, Inc., priority 2000, published 2003).

Key:
[1] = test system: Langendorff rat heart model of ischemia; assay: Global ischemia and reperfusion in isolated Langendorff-perfused rat heart (left ventricular pressure); conditions: 0.1 mM gentamicin recirculated 30 min, 40 min global ischemia, 45 min reperfusion; FIG. 5
From the text: The protocol used was essentially that described by Sakai et al. (A device for recording left ventricular contraction and electrocardiogram in nonworking isolated perfused rat heart, Jpn J Pharmacol 28:223-9, 1978), and Zelinski et al., (Phosphatidylcholine biosynthesis in isolated hamster heart, J Biol Chem. 255:11423-8, 1980) with the exception, in the latter instance, that rat studies were used in the experiments described herein instead of hamster hearts.
In brief, rats were anesthetized and their hearts were excised. The isolated hearts were cannulated and attached to Langendorff perfusion apparatus, and perfused with KH buffer. The hearts were allowed to stabilize for 5-10 min. After stabilization, the hearts should be paceable and drip rate should be between 5 and 10 mls per minute.
A small hole was cut in the left atrium of each animal to expose the mitral valve. A deflated transducer balloon was introduced into the left ventricle through the hole in left atrium. The transducer tube was taped and adjusted so that there was no pressure on the heart. Left ventricular pressure was measured and recorded using the MacLab program. […]
After about 45 min., the perfusate was turned off and the ventricular pressure was no longer recorded. […]

Adult rat cardiomyocytes = assay: Hypoxia-induced sphingosine (SPH) production/release in cultured adult cardiomyocytes, HPLC of extracted sphingolipids; type: cell-based; conditions: cells pretreated 30 min with TNFRII:Fc 0.5 ng/mL or L-carnitine 20 ng/mL prior to 5 h hypoxia, FIG. 4
Procedure: Adult rat cardiomyocytes were subjected to hypoxic conditions as described above and assayed for their ability to produce sphingolipid bases involved in the sphingomyelin signal transduction cascade.
Cardiomyocytes were cultured on plastic dishes that were placed in a humidified modular incubator chamber (ICN Biomedicals, Aurora, Ohio) pressurized to 0.04-0.05 psi by the particular gas mixture used in the treatment. Warm (37° C.) Tyrode's solution containing 0.2 mM BSA, ampicillin ([…]), kanamycin (100 mg/mL) and fungizone (20 μg/mL) was gassed in a 50 mL sterile conical for 15 minutes with 95%N2/5% CO2 prior to adding the solution to the cultured cells. The pO2 was monitored by a Micro pO2 System oxygen electrode (Lasar Research Labs, Los Angeles, Calif.) and found to be 4.0 PPM for the duration of the hypoxia condition. […] The pH of control and experimental cell cultures was monitored with a micro pH electrode (Beetrode pH Electrodes, Sarasota, Fla.) and remained constant at pH=7.26+/−0.02 for normoxic cells and 7.15+/−0.03 for hypoxic cells throughout the experiment. […]
The HPLC analysis was performed using a Beckman (Fullerton, Calif.) System Gold 118 Solvent Module and 507e Autosampler. A Jasco (Easton, Md.) FP-920 Intelligent Fluorescence Detector was used with an excitation wavelength of 330 nm and emission wavelength of 455 nm. […]

[2] = biological target: tumor necrosis factor alpha (TNFα) released by hypoxic rat cardiomyocytes (rat) (UniProt P16599); assay: cell-based or functional assay
Sequence of tumor necrosis factor alpha (TNFα) released by hypoxic rat cardiomyocytes (rat) (P16599 80-235 limits assumed): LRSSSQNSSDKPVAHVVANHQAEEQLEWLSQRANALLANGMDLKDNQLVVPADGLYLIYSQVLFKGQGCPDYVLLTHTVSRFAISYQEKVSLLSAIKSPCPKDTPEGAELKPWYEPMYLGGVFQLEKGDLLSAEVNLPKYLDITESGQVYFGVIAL

Compound: Gentamicin Sulfate
- ischemia and reperfusion injury [1]: mitigated

Compound: C[N+](C)(C)C[C@H](O)CC(=O)[O-] [L-carnitine]
- reducing the amount of total SPH (hypoxia-induced production of sphingosine) (Adult rat cardiomyocytes): significantly (p<0.01) reducing
- reducing the amount of total SPH (hypoxia-induced production of sphingosine) (Adult rat cardiomyocytes; listed as L-camitine): blocks

Compound: TNFRII:Fc receptor fragment (from UniProt P20333 23-257) (Fc fusion)
- SPH release from hypoxic adult rat cardiomyocytes (HPLC) [2]: 3 fold
